Laboratory results: US20240254135A1, “POLYPHENOL COMPOUNDS” (Epirium Bio Inc., priority 2022, published 2024)

System: PGC-1α
Experiment: In vivo PGC-1α expression in liver of LPS-treated mice (ELISA)
Parameters: species or system C57BL/6 mice
Settings: for PGC-1α level / PGC-1α levels: liver, male C57BL/6 mice, LPS 3 mg/Kg IP + compound 10 mg/kg PO BID, 24 h post LPS; for PGC-1α levels: third set: Control 38327, LPS alone 16860
Protocol: C57BL/6 mice were procured from Vivo Bio Tech Ltd. Male mice were used for the study within an age range of 7 to 8 weeks. Body weight for these mice ranged from 20 g to 25 g. Animals were housed in a group of 6 in individually ventilated cages with temperature of 22±3° C., a relative humidity of 50 to 60%. The bottom of the cages was layered with sterilized corn cob. Animals were provided with gamma irradiated feed and autoclaved drinking water ad-libitum. The IVCs were maintained at an environment controlled (Centrally Air-Conditioned) room at a temperature of 22±3° C., a relative humidity of 50 to 60%, light intensity of 250-300 lux and a 12 hour light-dark cycle and noise intensity of <85 db.
Method of Preparation: LPS was dosed at 3 mg/kg in a dose volume of 10 ml/kg. For this, 0.3 mg/ml of LPS solution (Micronized suspension) was prepared. Butter paper was placed on analytical balance, tarred and LPS was placed on butter paper and its weight was noted down. LPS was transferred to 15 ml falcon tube. Then required amount of normal saline was added to it to make it 0.3 mg/ml. The solution was vortexed properly for 5 minutes and placed on ice. LPS solution was vortexed every time before aspiration and injection.
LPS was dosed at 3 mg/kg. Each test compound was dosed at 10 mg/kg, 2 hour and 15 min post LPS administration.
0.5% CMC was used as a vehicle with a dose volume of 10 ml/kg. An IP route was used for LPS, and a PO route was used for each test compound. Animals were sacrificed 24 hours post LPS dosing, and plasma were collected. PGC-1α level was measured in liver samples, and other tissues were stored for future analysis. PGC-1α level was checked using ELISA kit—CUSABIO Mouse PPARGCIA ELISA kit.
Protocol: One day before start of the experiment C57BL/6 Mice (Male, 6-7-week-old) were randomized on the basis of their body weight and were divided into groups. All the cages were assigned the respective group name. Animals inside each cage were marked on the base of the tails with permanent marker to distinguish each animal. Mice were fasted overnight. Next day morning animals were dosed with test item. Group 1 (Control) and Group 2 (LPS) Animals were dosed with vehicle (0.5% CMC). Test items were prepared in 0.5% CMC by trituration in mortar and pestle and addition of CMC drop by drop. 2 hour post test item/vehicle dosing animals were administered with LPS through IP route at 3 mg/kg of body weight. Group 1 (Control) animals were administered with saline. 0.25 hour post LPS administration, animals were again dosed with test item/vehicle. Post dosing, animals were returned to their respective cages and kept until termination of the study. No feed was offered to any group. Animals were provided with water. 24 hour post LPS administration, blood was collected from each animal under influence of mild isoflurane anesthesia through retro-orbital technique. Animals were sacrificed by CO2 asphyxiation technique. Post-termination, animals were dissected and vital organs, liver, brain, skeleton muscle were collected in Eppendorf tubes and flash frozen in liquid nitrogen. Serum was collected from whole blood by centrifuging it at 4° C. at 10,000 RPM and for 10 minutes. (Blood was left for 2 hour for coagulation before centrifugation) After completion of the experiment, all collected samples were stored at −80° C. until analysis.
Assay Methods/Protocol: The mortar was chilled with liquid nitrogen and then the small tissue pieces were grinded in the presence of liquid nitrogen to a fine powder. Immediately after grinding, transferred small amount of tissue powder to a 1.5 ml micro centrifuge tube containing 1.0 ml lysis buffer (RIPA buffer+Protease inhibitor). The samples were then incubated on ice for 2 hours. The samples were vortexed every 15 minutes. The samples were then centrifuged at 13000×g for 15 minutes at 2-8° C. After centrifugation the supernatant was removed carefully and pellet was discarded. […]

[1] = as E21, relative to Control = 100, LPS alone 51
[2] = as E23, relative to Control = 100, LPS alone 66
[3] = as E25, relative to Control = 100, LPS alone 44
[4] = first set: Control 35303, LPS alone 18139
[5] = second set: Control 25677, LPS alone 16956

Row | SMILES | PGC-1α level (%) [1] [%] | PGC-1α level (%) [2] [%] | PGC-1α level (%) [3] [%] | PGC-1α level [4] [pg/mL] | PGC-1α level [5] [pg/mL] | PGC-1α levels [pg/mL]
1 | Oc1cc(O)c2c(c1)O[C@H](c1ccc(O)c(O)c1)[C@H](O)C2 [Epicatechin, (+)Epicatechin, reference compound] | 90 | 122 | 71 | 31729 | 31225 | 27272
2 | Oc1cc(O)c2c(c1)OC(c1ccccc1)C(O)C2 (single isomer, unassigned) [Compound 78a, 2-phenylchromane-3,5,7-triol] | – | – | 96 | – | – | 36967
3 | COc1cc(C2Oc3ccccc3CC2O)ccc1F (single isomer, unassigned) [Compound 75b, 2-(4-fluoro-3-methoxyphenyl)chroman-3-ol] | 92 | – | – | 32354 | – | –
4 | Oc1ccc2c(c1)OC(c1ccc(O)c(C(F)(F)F)c1)C(O)C2 (single isomer, unassigned) [Compound 77b, 2-(4-hydroxy-3-(trifluoromethyl)phenyl)chromane-3,7-diol] | – | 148 | – | – | 37954 | –
5 | Oc1cc(O)c2c(c1)OC(c1ccc(O)c(F)c1)C(O)C2 (single isomer, unassigned) [Compound 76b, 2-(3-fluoro-4-hydroxyphenyl)chromane-3,5,7-triol] | – | 81 | – | – | 20790 | –
